Species on record: Rattus norvegicus
Assay: DrugMatrix - Regimen: Daily Repeat
Assay type: toxicity, organism-based, Sprague-Dawley
Design: regimen Daily Repeat, gender Male, age 6-8 weeks
Settings: in vivo, po, 2000 mg/kg, route oral GAVAGE, dose level High, vehicle .5 % CMC; for ABSOLUTE BASOPHIL / ABSOLUTE EOSINOPHIL / ABSOLUTE LYMPHOCYTE / ABSOLUTE MONOCYTE / ABSOLUTE SEGMENTED NEUTROPHIL / BASOPHIL / EOSINOPHIL / ERYTHROCYTE COUNT / HEMATOCRIT / HEMOGLOBIN / LEUKOCYTE COUNT / LYMPHOCYTE / MEAN CORPUSCULAR HEMOGLOBIN / MEAN CORPUSCULAR HEMOGLOBIN CONCENTRATION / MEAN CORPUSCULAR VOLUME / MONOCYTE / NEUTROPHIL / NUCLEATED RED BLOOD CELLS / PLATELET COUNT: tissue Blood; for ALANINE AMINOTRANSFERASE / ALBUMIN / ALKALINE PHOSPHATASE / ASPARTATE AMINOTRANSFERASE / BLOOD UREA NITROGEN / CARBON DIOXIDE / CHLORIDE / CHOLESTEROL / CREATINE PHOSPHOKINASE / CREATININE / GLUCOSE / LACTATE DEHYDROGENASE / LIPASE / PHOSPHORUS / POTASSIUM / SODIUM / TOTAL BILIRUBIN / TOTAL PROTEIN / URIC ACID: tissue Plasma

Q: For `CC1(C)S[C@@H]2[C@H](NC(=O)[C@H](N)c3ccccc3)C(=O)N2[C@H]1C(=O)O` [AMPICILLIN], which “ABSOLUTE BASOPHIL” value (72 h, time 3 day) is on record?
A: 0 CELLS/uL

Q: And the “ABSOLUTE EOSINOPHIL” value (72 h, time 3 day)?
A: 156 CELLS/uL

Q: And the “ABSOLUTE LYMPHOCYTE” value (72 h, time 3 day)?
A: 12938 CELLS/uL

Q: What about the “ABSOLUTE MONOCYTE” value (72 h, time 3 day) of the same compound?
A: 42 CELLS/uL

Q: And the “ABSOLUTE SEGMENTED NEUTROPHIL” value (72 h, time 3 day)?
A: 1064 CELLS/uL

Q: And the BASOPHIL (72 h, time 3 day)?
A: 0%

Q: And the EOSINOPHIL (72 h, time 3 day)?
A: 1.33%

Q: And the “ERYTHROCYTE COUNT” value (72 h, time 3 day)?
A: 5.68 x10E6/uL

Q: What about the HEMATOCRIT (72 h, time 3 day) of the same compound?
A: 35.27%

Q: And the HEMOGLOBIN (72 h, time 3 day)?
A: 13.93 G/DL

Q: And the “LEUKOCYTE COUNT” value (72 h, time 3 day)?
A: 14.2 x10E3/uL

Q: What about the LYMPHOCYTE (72 h, time 3 day) of the same compound?
A: 90.33%

Q: And the “MEAN CORPUSCULAR HEMOGLOBIN” value (72 h, time 3 day)?
A: 24.53 pg

Q: And the “MEAN CORPUSCULAR HEMOGLOBIN CONCENTRATION” value (72 h, time 3 day)?
A: 39.5 G/DL

Q: What about the “MEAN CORPUSCULAR VOLUME” value (72 h, time 3 day) of the same compound?
A: 62.13 fL

Q: What about the MONOCYTE (72 h, time 3 day) of the same compound?
A: 0.33%

Q: What about the NEUTROPHIL (72 h, time 3 day) of the same compound?
A: 8%

Q: What about the “NUCLEATED RED BLOOD CELLS” value (72 h, time 3 day) of the same compound?
A: 0 /100WBC

Q: And the “PLATELET COUNT” value (72 h, time 3 day)?
A: 1229.33 x10E3/uL

Q: What about the “ALANINE AMINOTRANSFERASE” value (72 h, time 3 day) of the same compound?
A: 60 u/L

Q: And the ALBUMIN (72 h, time 3 day)?
A: 4.2 G/DL

Q: What about the “ALKALINE PHOSPHATASE” value (72 h, time 3 day) of the same compound?
A: 309 u/L

Q: What about the “ASPARTATE AMINOTRANSFERASE” value (72 h, time 3 day) of the same compound?
A: 77.67 u/L

Q: What about the “BLOOD UREA NITROGEN” value (72 h, time 3 day) of the same compound?
A: 18 mg/dL

Q: What about the “CARBON DIOXIDE” value (72 h, time 3 day) of the same compound?
A: 32 mmol/L

Q: What about the CHLORIDE (72 h, time 3 day) of the same compound?
A: 100.67 MEQ/L

Q: What about the CHOLESTEROL (72 h, time 3 day) of the same compound?
A: 94.33 mg/dL

Q: What about the “CREATINE PHOSPHOKINASE” value (72 h, time 3 day) of the same compound?
A: 141 u/L

Q: And the CREATININE (72 h, time 3 day)?
A: 0.18 mg/dL

Q: And the GLUCOSE (72 h, time 3 day)?
A: 140 mg/dL

Q: And the “LACTATE DEHYDROGENASE” value (72 h, time 3 day)?
A: 104 u/L

Q: What about the LIPASE (72 h, time 3 day) of the same compound?
A: 9.67 u/L

Q: And the PHOSPHORUS (72 h, time 3 day)?
A: 11.33 mg/dL

Q: What about the POTASSIUM (72 h, time 3 day) of the same compound?
A: 6.92 MEQ/L

Q: And the SODIUM (72 h, time 3 day)?
A: 144.13 MEQ/L

Q: And the “TOTAL BILIRUBIN” value (72 h, time 3 day)?
A: 0.17 mg/dL

Q: What about the “TOTAL PROTEIN” value (72 h, time 3 day) of the same compound?
A: 6 G/DL

Q: What about the “URIC ACID” value (72 h, time 3 day) of the same compound?
A: 1.43 mg/dL

Q: And the “ABSOLUTE BASOPHIL” value (120 h, time 5 day)?
A: 0 CELLS/uL

Q: What about the “ABSOLUTE EOSINOPHIL” value (120 h, time 5 day) of the same compound?
A: 45.67 CELLS/uL

Q: What about the “ABSOLUTE LYMPHOCYTE” value (120 h, time 5 day) of the same compound?
A: 13556.33 CELLS/uL

Q: What about the “ABSOLUTE MONOCYTE” value (120 h, time 5 day) of the same compound?
A: 151.67 CELLS/uL

Q: What about the “ABSOLUTE SEGMENTED NEUTROPHIL” value (120 h, time 5 day) of the same compound?
A: 1413 CELLS/uL

Q: And the BASOPHIL (120 h, time 5 day)?
A: 0%

Q: What about the EOSINOPHIL (120 h, time 5 day) of the same compound?
A: 0.33%

Q: And the “ERYTHROCYTE COUNT” value (120 h, time 5 day)?
A: 5.47 x10E6/uL

Q: What about the HEMATOCRIT (120 h, time 5 day) of the same compound?
A: 33.33%

Q: What about the HEMOGLOBIN (120 h, time 5 day) of the same compound?
A: 13.37 G/DL

Q: And the “LEUKOCYTE COUNT” value (120 h, time 5 day)?
A: 15.17 x10E3/uL

Q: And the LYMPHOCYTE (120 h, time 5 day)?
A: 88.67%

Q: What about the “MEAN CORPUSCULAR HEMOGLOBIN” value (120 h, time 5 day) of the same compound?
A: 24.47 pg

Q: And the “MEAN CORPUSCULAR HEMOGLOBIN CONCENTRATION” value (120 h, time 5 day)?
A: 40.1 G/DL

Q: What about the “MEAN CORPUSCULAR VOLUME” value (120 h, time 5 day) of the same compound?
A: 60.97 fL

Q: What about the MONOCYTE (120 h, time 5 day) of the same compound?
A: 1%

Q: What about the NEUTROPHIL (120 h, time 5 day) of the same compound?
A: 10%

Q: And the “NUCLEATED RED BLOOD CELLS” value (120 h, time 5 day)?
A: 0 /100WBC

Q: What about the “PLATELET COUNT” value (120 h, time 5 day) of the same compound?
A: 1262.67 x10E3/uL

Q: And the “ALANINE AMINOTRANSFERASE” value (120 h, time 5 day)?
A: 63.33 u/L

Q: And the ALBUMIN (120 h, time 5 day)?
A: 4.13 G/DL

Q: And the “ALKALINE PHOSPHATASE” value (120 h, time 5 day)?
A: 352 u/L

Q: And the “ASPARTATE AMINOTRANSFERASE” value (120 h, time 5 day)?
A: 99 u/L

Q: And the “BLOOD UREA NITROGEN” value (120 h, time 5 day)?
A: 19.33 mg/dL

Q: What about the “CARBON DIOXIDE” value (120 h, time 5 day) of the same compound?
A: 24 mmol/L

Q: And the CHLORIDE (120 h, time 5 day)?
A: 106.67 MEQ/L

Q: What about the CHOLESTEROL (120 h, time 5 day) of the same compound?
A: 73 mg/dL

Q: What about the “CREATINE PHOSPHOKINASE” value (120 h, time 5 day) of the same compound?
A: 430.33 u/L

Q: And the CREATININE (120 h, time 5 day)?
A: 0.2 mg/dL

Q: And the GLUCOSE (120 h, time 5 day)?
A: 150.33 mg/dL

Q: What about the “LACTATE DEHYDROGENASE” value (120 h, time 5 day) of the same compound?
A: 413.67 u/L

Q: What about the LIPASE (120 h, time 5 day) of the same compound?
A: 9.67 u/L

Q: And the PHOSPHORUS (120 h, time 5 day)?
A: 11.63 mg/dL

Q: What about the POTASSIUM (120 h, time 5 day) of the same compound?
A: 6.95 MEQ/L

Q: What about the SODIUM (120 h, time 5 day) of the same compound?
A: 148.53 MEQ/L

Q: What about the “TOTAL BILIRUBIN” value (120 h, time 5 day) of the same compound?
A: 0.17 mg/dL

Q: And the “TOTAL PROTEIN” value (120 h, time 5 day)?
A: 6.03 G/DL

Q: What about the “URIC ACID” value (120 h, time 5 day) of the same compound?
A: 1.6 mg/dL
